In patent publication US11530221B2, “Pyrimido[4,5-d]pyrimidin-2-one derivatives as protein kinase inhibitors” (KOREA INSTITUTE OF SCIENCE AND TECHNOLOGY, priority 2019, dated 2022):
Where two headings read alike, the source gives them in different places. Square brackets hold non-standard residues; d marks the D form. Peptide text beside a SMILES is read from it. * marks the point of attachment. X1 = Cc1ccc(Nc2ncc3c(n2)N(C)C(=O)N(c2cc(C(=O)*)ccc2C)C3)cn1; Aib = CC(C)(N)C(=O)O

What was measured:
Assay type in all cases: biochemical
DDR2 = target: T1, DDR2 (Homo sapiens, UniProt Q16832); assay: Full kinase panel, single concentration: DDR2; conditions: read-out: residual enzyme activity (%) DDR2
T1 sequence (Q16832 22-855): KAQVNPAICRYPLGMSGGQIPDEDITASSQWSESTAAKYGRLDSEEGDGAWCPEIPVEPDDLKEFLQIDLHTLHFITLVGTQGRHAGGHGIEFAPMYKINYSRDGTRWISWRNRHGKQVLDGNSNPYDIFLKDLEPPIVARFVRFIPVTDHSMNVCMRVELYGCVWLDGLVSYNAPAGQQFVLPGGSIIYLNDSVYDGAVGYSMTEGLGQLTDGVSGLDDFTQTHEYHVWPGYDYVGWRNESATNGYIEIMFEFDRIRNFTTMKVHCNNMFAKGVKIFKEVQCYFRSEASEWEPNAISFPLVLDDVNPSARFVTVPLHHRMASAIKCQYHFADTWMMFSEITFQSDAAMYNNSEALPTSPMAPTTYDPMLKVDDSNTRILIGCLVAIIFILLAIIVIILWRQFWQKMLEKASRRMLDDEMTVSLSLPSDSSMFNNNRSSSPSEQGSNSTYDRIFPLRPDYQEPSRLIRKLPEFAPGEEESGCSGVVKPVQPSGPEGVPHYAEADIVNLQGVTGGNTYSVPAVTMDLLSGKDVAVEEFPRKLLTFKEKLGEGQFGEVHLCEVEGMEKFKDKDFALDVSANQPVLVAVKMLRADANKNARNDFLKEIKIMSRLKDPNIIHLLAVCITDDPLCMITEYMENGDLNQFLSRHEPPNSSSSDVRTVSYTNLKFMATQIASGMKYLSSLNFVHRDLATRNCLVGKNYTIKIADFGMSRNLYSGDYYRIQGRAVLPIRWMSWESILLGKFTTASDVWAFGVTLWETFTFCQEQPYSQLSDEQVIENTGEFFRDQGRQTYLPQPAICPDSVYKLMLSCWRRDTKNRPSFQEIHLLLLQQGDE
Experimental: (§1) In order to measure the inhibitory activity (% inhibitory capacity) against protein kinases of the compounds of the present invention, biochemical assays were performed using a full kinase panel.
(§2) The experimental compounds used herein were the compounds of Compound Nos. 1 and 33. The residual enzyme activity (%) was calculated by measuring the inhibitory activity against kinases upon treatment with the experimental compound at a single concentration of 1 μM. Kinases having calculated residual enzyme activity (%) of 30% or less (that is, inhibition of 70% or more) are shown below.

DDR1 [1] = target: T2, DDR1 (Homo sapiens, UniProt Q08345); assay: Full kinase panel, single concentration: DDR1; conditions: read-out: residual enzyme activity (%) DDR1
T2 sequence (Q08345 19-913): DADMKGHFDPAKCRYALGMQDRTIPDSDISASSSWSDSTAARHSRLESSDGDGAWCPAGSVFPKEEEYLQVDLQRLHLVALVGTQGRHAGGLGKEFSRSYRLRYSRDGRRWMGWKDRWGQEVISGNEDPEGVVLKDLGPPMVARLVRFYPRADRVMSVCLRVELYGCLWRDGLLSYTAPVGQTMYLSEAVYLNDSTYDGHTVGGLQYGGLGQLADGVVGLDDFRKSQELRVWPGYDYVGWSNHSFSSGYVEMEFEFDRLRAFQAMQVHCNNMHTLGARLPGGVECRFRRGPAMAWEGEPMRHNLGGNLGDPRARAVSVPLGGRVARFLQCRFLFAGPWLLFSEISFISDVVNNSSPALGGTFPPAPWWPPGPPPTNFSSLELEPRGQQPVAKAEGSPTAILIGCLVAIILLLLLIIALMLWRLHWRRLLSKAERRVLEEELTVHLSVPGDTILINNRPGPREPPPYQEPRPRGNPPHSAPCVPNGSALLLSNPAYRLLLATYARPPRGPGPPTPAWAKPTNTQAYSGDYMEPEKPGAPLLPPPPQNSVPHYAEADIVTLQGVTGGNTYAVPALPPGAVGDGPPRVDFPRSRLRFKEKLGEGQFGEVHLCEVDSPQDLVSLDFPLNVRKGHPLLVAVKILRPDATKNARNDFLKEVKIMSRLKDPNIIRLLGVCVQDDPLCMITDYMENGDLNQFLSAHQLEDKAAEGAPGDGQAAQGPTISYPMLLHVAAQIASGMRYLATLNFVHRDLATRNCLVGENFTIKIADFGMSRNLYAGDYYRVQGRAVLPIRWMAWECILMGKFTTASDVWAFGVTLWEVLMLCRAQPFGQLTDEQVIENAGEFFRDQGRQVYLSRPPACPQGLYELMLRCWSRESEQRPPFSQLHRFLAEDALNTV
Experimental: as §1, §2

FGR [2] = target: T3, FGR (Homo sapiens, UniProt P09769); assay: Full kinase panel, single concentration: FGR; conditions: read-out: residual enzyme activity (%) FGR
T3 sequence (P09769 whole entry): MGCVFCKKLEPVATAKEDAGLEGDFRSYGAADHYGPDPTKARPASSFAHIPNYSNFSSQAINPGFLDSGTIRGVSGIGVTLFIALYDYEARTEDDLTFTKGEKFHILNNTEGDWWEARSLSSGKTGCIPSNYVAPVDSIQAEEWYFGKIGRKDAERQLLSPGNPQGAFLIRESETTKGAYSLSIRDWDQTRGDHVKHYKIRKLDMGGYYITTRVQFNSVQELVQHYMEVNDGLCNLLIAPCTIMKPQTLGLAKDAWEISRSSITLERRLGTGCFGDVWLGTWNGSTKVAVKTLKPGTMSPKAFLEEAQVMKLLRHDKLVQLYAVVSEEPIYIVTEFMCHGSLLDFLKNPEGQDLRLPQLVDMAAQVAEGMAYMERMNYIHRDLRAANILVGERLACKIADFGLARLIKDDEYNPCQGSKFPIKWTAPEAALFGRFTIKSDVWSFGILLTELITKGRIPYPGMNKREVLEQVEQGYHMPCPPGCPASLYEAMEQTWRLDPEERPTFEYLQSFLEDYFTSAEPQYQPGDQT
Experimental: as §1, §2

RAF1 = RAF1 (Homo sapiens, UniProt P04049); assay: Full kinase panel, single concentration: RAF1; conditions: read-out: residual enzyme activity (%) RAF1
Experimental: as §1, §2

DDR1 [3] = target: T2, DDR1; assay: IC50 inhibitory activity against DDR1 kinase
Experimental: (§3) IC50 values were calculated by measuring the inhibitory activity against LCK, c-Src, p38a/MAPK14, ABL1, DDR1 and FGR kinases of the compounds of the present invention.

ABL1 (T315I) = ABL1 (T315I) (Homo sapiens, UniProt P00519, T315I); assay: IC50 inhibitory activity against ABL1 (T315I) kinase
Experimental: as §3

c-Src [4] = target: T4, c-Src (Homo sapiens, UniProt P12931); assay: Full kinase panel, single concentration: c-Src; conditions: read-out: residual enzyme activity (%) c-Src
T4 sequence (P12931 whole entry): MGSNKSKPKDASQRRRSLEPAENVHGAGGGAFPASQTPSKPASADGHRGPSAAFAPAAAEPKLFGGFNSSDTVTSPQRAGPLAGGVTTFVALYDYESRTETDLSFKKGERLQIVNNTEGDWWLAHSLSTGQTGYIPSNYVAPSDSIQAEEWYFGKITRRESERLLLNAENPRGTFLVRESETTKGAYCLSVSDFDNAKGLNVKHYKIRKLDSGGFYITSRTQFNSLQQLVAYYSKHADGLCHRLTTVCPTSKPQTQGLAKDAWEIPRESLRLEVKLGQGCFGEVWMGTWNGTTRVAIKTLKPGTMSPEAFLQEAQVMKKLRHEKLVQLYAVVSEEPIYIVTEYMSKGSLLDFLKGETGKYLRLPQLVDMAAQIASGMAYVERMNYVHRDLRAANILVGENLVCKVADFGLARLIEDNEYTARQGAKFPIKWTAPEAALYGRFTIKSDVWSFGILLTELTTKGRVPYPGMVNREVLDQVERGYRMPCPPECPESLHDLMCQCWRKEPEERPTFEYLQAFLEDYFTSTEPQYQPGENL
Experimental: as §1, §2

BMX = target: T5, BMX (Homo sapiens, UniProt P51813); assay: Full kinase panel, single concentration: BMX; conditions: read-out: residual enzyme activity (%) BMX
T5 sequence (P51813 1-675): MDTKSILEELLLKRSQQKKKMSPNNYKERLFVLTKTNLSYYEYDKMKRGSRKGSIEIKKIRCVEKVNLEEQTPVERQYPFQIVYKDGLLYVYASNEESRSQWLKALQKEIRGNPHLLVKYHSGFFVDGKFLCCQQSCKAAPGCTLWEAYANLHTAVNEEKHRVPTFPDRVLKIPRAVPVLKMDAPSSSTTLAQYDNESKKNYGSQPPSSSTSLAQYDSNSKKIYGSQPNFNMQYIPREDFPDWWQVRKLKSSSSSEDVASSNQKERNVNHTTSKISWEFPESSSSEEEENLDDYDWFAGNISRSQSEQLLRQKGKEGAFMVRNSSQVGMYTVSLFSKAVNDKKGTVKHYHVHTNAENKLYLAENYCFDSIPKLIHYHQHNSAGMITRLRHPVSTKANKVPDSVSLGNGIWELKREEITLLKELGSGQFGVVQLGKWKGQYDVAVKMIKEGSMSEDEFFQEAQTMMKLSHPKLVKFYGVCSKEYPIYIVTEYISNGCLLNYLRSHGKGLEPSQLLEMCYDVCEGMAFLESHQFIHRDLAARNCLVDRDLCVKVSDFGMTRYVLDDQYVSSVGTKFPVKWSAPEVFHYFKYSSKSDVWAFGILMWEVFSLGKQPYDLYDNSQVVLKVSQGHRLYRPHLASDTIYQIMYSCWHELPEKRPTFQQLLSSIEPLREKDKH
Experimental: as §1, §2

FGR [5] = target: T3, FGR; assay: IC50 inhibitory activity against FGR kinase
Experimental: as §3

HCK = HCK (Homo sapiens, UniProt P08631); assay: Full kinase panel, single concentration: HCK; conditions: read-out: residual enzyme activity (%) HCK
Experimental: as §1, §2

LCK [6] = target: T6, LCK (Homo sapiens, UniProt P06239); assay: Full kinase panel, single concentration: LCK; conditions: read-out: residual enzyme activity (%) LCK
T6 sequence (P06239 whole entry): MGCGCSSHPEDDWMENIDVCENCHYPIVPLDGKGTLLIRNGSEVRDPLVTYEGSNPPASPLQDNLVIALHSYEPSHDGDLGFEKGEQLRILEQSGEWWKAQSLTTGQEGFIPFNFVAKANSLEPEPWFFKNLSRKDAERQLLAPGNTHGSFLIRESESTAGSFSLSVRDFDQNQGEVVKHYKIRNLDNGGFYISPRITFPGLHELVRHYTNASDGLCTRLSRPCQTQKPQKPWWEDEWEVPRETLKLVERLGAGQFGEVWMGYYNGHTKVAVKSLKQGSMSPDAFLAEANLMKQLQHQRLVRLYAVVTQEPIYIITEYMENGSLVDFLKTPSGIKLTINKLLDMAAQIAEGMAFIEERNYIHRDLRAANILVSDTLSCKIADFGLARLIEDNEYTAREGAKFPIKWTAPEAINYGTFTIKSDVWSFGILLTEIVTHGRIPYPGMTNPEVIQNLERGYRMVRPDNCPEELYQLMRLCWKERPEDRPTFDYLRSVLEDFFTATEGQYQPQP
Experimental: as §1, §2

c-Src [7] = target: T4, c-Src; assay: IC50 inhibitory activity against c-Src kinase
Experimental: as §3

LCK [8] = target: T6, LCK; assay: IC50 inhibitory activity against LCK kinase
Experimental: as §3

CSK = CSK (Homo sapiens, UniProt P41240); assay: Full kinase panel, single concentration: CSK; conditions: read-out: residual enzyme activity (%) CSK
Experimental: as §1, §2

ABL1 = ABL1 (Homo sapiens, UniProt P00519); assay: IC50 inhibitory activity against ABL1 kinase
Experimental: as §3

ABL2 = ABL2 (Homo sapiens, UniProt P42684); assay: Full kinase panel, single concentration: ABL2; conditions: read-out: residual enzyme activity (%) ABL2
Chain of ABL2 (P42684 whole entry): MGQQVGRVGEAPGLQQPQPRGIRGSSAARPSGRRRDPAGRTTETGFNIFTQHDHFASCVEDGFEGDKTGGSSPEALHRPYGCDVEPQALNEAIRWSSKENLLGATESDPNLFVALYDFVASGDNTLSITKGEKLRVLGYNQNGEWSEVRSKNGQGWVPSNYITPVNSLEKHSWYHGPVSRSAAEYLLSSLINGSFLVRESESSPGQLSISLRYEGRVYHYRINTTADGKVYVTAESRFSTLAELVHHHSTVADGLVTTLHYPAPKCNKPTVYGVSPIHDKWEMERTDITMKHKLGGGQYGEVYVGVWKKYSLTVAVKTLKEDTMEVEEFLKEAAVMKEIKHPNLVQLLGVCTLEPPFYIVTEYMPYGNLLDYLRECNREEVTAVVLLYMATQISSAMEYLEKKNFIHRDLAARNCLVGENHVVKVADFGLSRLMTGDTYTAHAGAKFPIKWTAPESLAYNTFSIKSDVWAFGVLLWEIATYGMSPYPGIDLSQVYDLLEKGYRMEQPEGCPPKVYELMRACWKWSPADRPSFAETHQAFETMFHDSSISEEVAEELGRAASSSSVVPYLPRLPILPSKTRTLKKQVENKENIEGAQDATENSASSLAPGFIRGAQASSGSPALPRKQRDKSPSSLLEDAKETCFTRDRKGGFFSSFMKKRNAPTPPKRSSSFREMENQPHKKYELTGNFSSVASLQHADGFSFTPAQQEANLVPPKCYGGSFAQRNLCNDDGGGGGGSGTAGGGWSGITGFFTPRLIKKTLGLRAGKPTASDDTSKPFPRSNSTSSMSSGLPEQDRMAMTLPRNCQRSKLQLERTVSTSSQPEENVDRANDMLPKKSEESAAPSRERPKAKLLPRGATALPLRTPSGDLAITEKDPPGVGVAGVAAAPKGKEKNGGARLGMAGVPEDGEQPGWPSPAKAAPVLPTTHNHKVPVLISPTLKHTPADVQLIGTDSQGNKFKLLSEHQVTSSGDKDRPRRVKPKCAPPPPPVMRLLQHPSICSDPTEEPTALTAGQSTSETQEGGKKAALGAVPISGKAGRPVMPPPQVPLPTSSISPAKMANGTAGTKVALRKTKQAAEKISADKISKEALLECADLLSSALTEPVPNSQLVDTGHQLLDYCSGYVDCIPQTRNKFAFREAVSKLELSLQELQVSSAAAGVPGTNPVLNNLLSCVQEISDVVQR
Experimental: as §1, §2

p38a/MAPK14 = p38a/MAPK14 (Homo sapiens, UniProt Q16539); assay: IC50 inhibitory activity against p38a/MAPK14 kinase
Chain of p38a/MAPK14 (Q16539 whole entry): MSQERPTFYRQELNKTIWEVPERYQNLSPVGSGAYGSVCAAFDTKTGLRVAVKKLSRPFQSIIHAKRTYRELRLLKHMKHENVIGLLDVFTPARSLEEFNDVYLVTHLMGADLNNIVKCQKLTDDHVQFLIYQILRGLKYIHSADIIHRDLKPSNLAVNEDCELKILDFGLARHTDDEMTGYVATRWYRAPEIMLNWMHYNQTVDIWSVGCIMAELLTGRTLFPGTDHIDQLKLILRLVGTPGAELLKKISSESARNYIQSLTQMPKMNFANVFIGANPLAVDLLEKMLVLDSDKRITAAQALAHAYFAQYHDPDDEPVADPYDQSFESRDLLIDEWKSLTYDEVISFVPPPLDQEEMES
Experimental: as §3

LYN [9] = target: T7, LYN (Homo sapiens, UniProt P07948); assay: Full kinase panel, single concentration: LYN; conditions: read-out: residual enzyme activity (%) LYN
T7 sequence (P07948 whole entry): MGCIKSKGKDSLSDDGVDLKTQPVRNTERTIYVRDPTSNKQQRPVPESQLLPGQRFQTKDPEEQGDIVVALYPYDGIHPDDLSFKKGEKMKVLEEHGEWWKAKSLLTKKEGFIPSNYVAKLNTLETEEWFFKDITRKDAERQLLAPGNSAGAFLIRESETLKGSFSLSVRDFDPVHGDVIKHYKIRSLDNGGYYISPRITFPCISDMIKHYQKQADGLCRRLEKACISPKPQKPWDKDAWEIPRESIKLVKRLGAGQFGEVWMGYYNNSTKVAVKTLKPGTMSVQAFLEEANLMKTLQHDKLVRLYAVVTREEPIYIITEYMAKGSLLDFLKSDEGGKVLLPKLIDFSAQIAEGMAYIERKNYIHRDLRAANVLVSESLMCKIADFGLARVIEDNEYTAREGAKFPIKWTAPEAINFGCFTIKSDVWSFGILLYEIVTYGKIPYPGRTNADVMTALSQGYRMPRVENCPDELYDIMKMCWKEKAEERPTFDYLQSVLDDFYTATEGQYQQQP
Experimental: as §1, §2

BLK = BLK (Homo sapiens, UniProt P51451); assay: Full kinase panel, single concentration: BLK; conditions: read-out: residual enzyme activity (%) BLK
Chain of BLK (P51451 whole entry): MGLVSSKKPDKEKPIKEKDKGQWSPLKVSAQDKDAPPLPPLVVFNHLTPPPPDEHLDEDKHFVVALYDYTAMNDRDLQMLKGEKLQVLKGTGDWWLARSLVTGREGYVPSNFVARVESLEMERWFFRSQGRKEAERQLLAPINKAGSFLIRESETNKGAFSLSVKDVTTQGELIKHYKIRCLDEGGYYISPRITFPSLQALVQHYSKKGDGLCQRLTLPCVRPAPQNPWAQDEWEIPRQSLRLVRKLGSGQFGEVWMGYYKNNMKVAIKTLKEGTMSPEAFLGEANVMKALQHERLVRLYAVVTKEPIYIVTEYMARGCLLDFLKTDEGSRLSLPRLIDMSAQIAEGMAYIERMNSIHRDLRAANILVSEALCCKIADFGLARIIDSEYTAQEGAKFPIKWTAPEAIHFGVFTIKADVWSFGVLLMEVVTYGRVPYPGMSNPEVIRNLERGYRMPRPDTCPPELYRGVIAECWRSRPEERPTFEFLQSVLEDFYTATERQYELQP
Experimental: as §1, §2

LYN [10] = target: T7, LYN; assay: IC50 inhibitory activity against LYN kinase

## Cc1ccc(Nc2ncc3c(n2)N(C)C(=O)N(c2cc(C(=O)N[C@H](C(=O)N4CCC[C@H]4C(=O)NC(C)(C)C(=O)N[C@@H](CC(C)C)C(=O)N(C)C)C(C)C)ccc2C)C3)cn1 [Example 1, (S)—N-(1-(((S)-1-(dimethylamino)-4-methyl-1-oxopentan-2-yl)amino)-2-methyl-1-oxopropan-2-yl)-1-((4-methyl-3-(1-methyl-7-((6-methylpyridin-3-yl)amino)-2-oxo-1,4-dihydropyrimido[4,5-d]pyrimidin-3(2H)-yl)benzoyl)-L-valyl)pyrrolidine-2-carboxamide] (X1-VP[Aib]L-NMe2)
DDR2
  remaining activity at 1 µM: ≤ 30%
DDR1 [1]
  remaining activity at 1 µM: ≤ 30%
FGR [2]
  remaining activity at 1 µM: ≤ 30%
RAF1
  remaining activity at 1 µM: ≤ 30%
DDR1 [3]
  IC50: 1 to 200 nM
ABL1 (T315I)
  IC50: > 600 nM
c-Src [4]
  remaining activity at 1 µM: ≤ 30%
BMX
  remaining activity at 1 µM: ≤ 30%
FGR [5]
  IC50: 1 to 200 nM
HCK
  remaining activity at 1 µM: ≤ 30%
LCK [6]
  remaining activity at 1 µM: ≤ 30%
c-Src [7]
  IC50: > 600 nM
LCK [8]
  IC50: 1 to 200 nM
CSK
  remaining activity at 1 µM: ≤ 30%
ABL1
  IC50: 200 to 400 nM
ABL2
  remaining activity at 1 µM: ≤ 30%
p38a/MAPK14
  IC50: > 600 nM
LYN [9]
  remaining activity at 1 µM: ≤ 30%
BLK
  remaining activity at 1 µM: ≤ 30%

## Cc1ccc(Nc2ncc3c(n2)N(C)C(=O)N(c2cc(NC(=O)c4ccc5c(c4)N(Cc4ccccc4)C(=O)[C@H](CC(C)C)N=C5c4ccccc4)ccc2C)C3)cn1 [Example 33, (S)-1-benzyl-3-isobutyl-N-(4-methyl-3-(1-methyl-7-((6-methylpyridin-3-yl)amino)-2-oxo-1,4-dihydropyrimido[4,5-d]pyrimidin-3(2H)-yl)phenyl)-2-oxo-5-phenyl-2,3-dihydro-1H-benzo[e][1,4]diazepine-8-carboxamide]
DDR2; single concentration of 1 μM
  remaining activity at 1 µM: ≤ 30%
DDR1 [1]; single concentration of 1 μM
  remaining activity at 1 µM: ≤ 30%
FGR [2]; single concentration of 1 μM
  remaining activity at 1 µM: ≤ 30%
RAF1; single concentration of 1 μM
  remaining activity at 1 µM: ≤ 30%
DDR1 [3]; read-out: DDR1 IC50
  IC50: 1 to 200 nM
ABL1 (T315I); read-out: ABL1 (T315I) IC50
  IC50: > 600 nM
c-Src [4]; single concentration of 1 μM
  remaining activity at 1 µM: ≤ 30%
BMX; single concentration of 1 μM
  remaining activity at 1 µM: ≤ 30%
FGR [5]; read-out: FGR IC50
  IC50: 1 to 200 nM
LYN [10]
  IC50: 1 to 200 nM
HCK; single concentration of 1 μM
  remaining activity at 1 µM: ≤ 30%
LCK [6]; single concentration of 1 μM
  remaining activity at 1 µM: ≤ 30%
c-Src [7]; read-out: c-Src IC50
  IC50: 400 to 600 nM
LCK [8]; read-out: LCK IC50
  IC50: 1 to 200 nM
CSK; single concentration of 1 μM
  remaining activity at 1 µM: ≤ 30%
ABL1; read-out: ABL1 IC50
  IC50: 400 to 600 nM
ABL2; single concentration of 1 μM
  remaining activity at 1 µM: ≤ 30%
p38a/MAPK14; read-out: p38a/MAPK14 IC50
  IC50: > 600 nM
LYN [9]; single concentration of 1 μM
  remaining activity at 1 µM: ≤ 30%
BLK; single concentration of 1 μM
  remaining activity at 1 µM: ≤ 30%
